This note sets out measurements from patent US7279502B2, “Polyamine analog conjugates and quinone conjugates as therapies for cancers and prostate diseases” (Cellgate, Inc., priority 1999, dated 2007).

Assay [1] deals with human prostate adenocarcinoma cell line PC-3. Put plainly: MTT assay, quinones, PC-3. It counts as cell-based. To be noted: Table 3, treatment time not given in cell, read-out: ID50 PC-3. As for the experimental part:
(§1) Cell Culture: The human lung adenocarcinoma cell line, A549, and human prostatic cancer cell line, DUPRO, were a gift from Dr. M. Eileen Dolan, University of Chicago, Department of Medicine. A549 was grown in Ham's F-12K medium (Fisher Scientific, Itasca, Ill.) supplemented with 10% fetal bovine serum and 2 mM L-glutamine. DUPRO was grown in RPMI-1640 supplemented with 10% fetal bovine serum. The human colon carcinoma cell line, HT29, and the human breast carcinoma cell line, MCF7, were obtained from the American Type Culture Collection, Rockville, Md. HT29 cells were grown in McCoy's 5A medium (Gibco, BRL, Gaithersburg, Md.) supplemented with 10% fetal bovine serum. MCF7 cells were grown in Richter's Improved Modified Eagle's medium supplemented with 10% fetal bovine serum and 2.2 g/L sodium bicarbonate. The human prostate adenocarcinoma cell lines, LNCAP, PC-3 and DU145, were gifts from Dr. George Wilding, University of Wisconsin Comprehensive Cancer Center and the Department of Medicine, and were grown in Dulbecco's Modified Eagle's medium supplemented with a 5% fetal bovine serum. The malignant glioma cell line, U251MG NCI was obtained from the brain tumor tissue bank at the University of California, San Francisco Department of Neurosurgery, and was grown in Dulbecco's Modified Eagle's medium supplemented wth 10% fetal bovine serum. DUPRO, A549 and MCF7 cells were grown in 100 units/mL penicillin and 100 μg/mL streptomycin. HT29 and U251MG NCI cells were grown in 50 μg/mL gentamycin. LNCAP, PC-3 and DU145 cells were maintained in 1% antibiotic antimycotic solution (Sigma, St. Louis, Mo.). All cell cultures were maintained at 37° C. in 5% CO2/95% humidified air.
(§2) MTT assay. Exponentially growing monolayer cells were plated in 96 well plates at a density of 500 cells/well and allowed to grow for 24 h. Serially diluted drug solutions were added such that the final drug concentrations in the treatment media were between 0 and 35 μM. Cells were incubated with drug at either 4 hr or 72 hr. After 4 hr and 72 hr treatment, drugs were removed, fresh media (without) drug (100 uL) was added and cells were incubated for 6 days. After six days, 25 μL of a Dulbecco's phosphate-buffered saline solution containing 5 mg/mL of MTT (Thiazolyl blue) (Sigma) was added to each well and incubated for 4 h at 37° C. Then 100 μL of lysis buffer (20% sodium dodecyl sulfate, 50% N,N-dimethylformamide and 0.8% acetic acid, pH 4.7) was added to each well and incubated for an additional 22 h. A microplate reader (E max, Molecular Devices, Sunnyvale, Calif.) set at 570 nm was used to determine the optical density. Results were plotted as a ratio of the optical density in drug treated wells to the optical density in wells treated with vehicle alone. Plotting and estimation of ID50 values were accomplished with manufacturer supplied software. The data is presented below in Tables 3, 4, 5 and 6.

Assay [2] relates to human prostate adenocarcinoma cell line DU145. The experiment in a line: MTT assay, quinones, DU145. It counts as cell-based. To be noted: DU-145, Table 3, treatment time not given in cell, read-out: ID50 DU145. As for the experimental part: as §1
(§3) MTT assay. Exponentially growing monolayer cells were plated in 96 well plates at a density of 500 cells/well and allowed to grow for 24 h. Serially diluted drug solutions were added such that the final drug concentrations in the treatment media were between 0 and 35 μM. […] A microplate reader (E max, Molecular Devices, Sunnyvale, Calif.) set at 570 nm was used to determine the optical density. […]

For assay [3], the system named is human prostatic cancer cell line, DUPRO. Put plainly: MTT assay, quinones, DUPRO. It counts as cell-based. To be noted: Table 3, treatment time not given in cell, read-out: ID50 DUPRO. The protocol:
as §1, §3
In general terms: Tetrazolium dyes change colour on reduction, which living cells bring about.

In assay [4] the test system is human breast carcinoma cell line, MCF7. The experiment in a line: MTT assay, quinones, MCF7. It counts as cell-based. Particulars: Table 4, treatment time not given in cell, read-out: ID50 Breast MCF7. As for the experimental part:
as §1, §2

The subject of assay [5] is human prostate cancer cells DU145. Put plainly: MTT assay, polyamine analogs, DU145. Particulars: for EC50: figure legends, read-out: ED50 (the source's name). It counts as cell-based. The protocol:
(§4) Human breast cancer cell line MCF7 was grown in Richter's Improved Modified Eagle's Medium supplemented with 10% fetal bovine serum (FBS) and 2.2 g/L sodium bicarbonate. Human brain tumor cell line U251 MG-NCI was grown in Dulbecco's Modified Eagle's Medium supplemented with 10% FBS. Human lung cancer cell line A549 was grown in Ham's F-12K medium (Cellgro, Mediatech, Inc., VA), supplemented with 10% FBS and 2 mM L-glutamine. Human colon cancer cell line HT29 was cultured in McCoy's 5A medium (Gibco, BRL, Gaithersburg, Md.) supplemented with 10% FBS. Human prostate cancer cell lines PC-3, LNCAP and DuPro were grown in RPMI 1640 Medium (Cellgro, Mediatech, Inc., VA) supplemented with 10% FBS. Another human prostate cancer cell line DU145 was grown in Dulbecco's Modified Eagle's Medium (Gibco, BRL, Gaithersburg, Md.) supplemented with 5% FBS. The A549, MCF7, PC3, LNCAP and DuPro cell lines were cultured in 100 units/mL penicillin and 100 μg/mL streptomycin. HT29 and U251MG cell lines were grown in 50 μg/mL gentamycin (Gibco, BRL, Gaithersburg, Md.). DU145 cell line was maintained in 1% antibitic-antimycotic solution (Sigma, St. Louis, Mo.). The cell cultures were maintained at 37° C. in 5% CO2/95% humidified air. DuPro cells were obtained from M. Eileen Dolan, University of Chicago. All other cells are available from the American Type Culture Collection, Rockville, Md.
(§5) A conventional MTT assay was used to evaluate percent cell survival. Exponentially growing monolayer cells were plated in 96-well plates at a density of 500 cells per well and allowed to grow for 24 hours. Serial dilutions of the drugs were added to the wells. Six days after drug treatment, 25 μl of MTT solution (5 mg/ml) was added to each well and incubated for 4 hours at 37° C. Then 100 μl of lysis buffer (20% sodium dodecyl sulfate, 50% DMF, and 0.8% acetic acid, pH 4.7) was added to each well and incubated for an additional 22 hours. A microplate reader (“EMAX”-brand, Molecular Devices, Sunnyvale, Calif.) set at 570 nm was used to determine the optical density of the cultures. Results are expressed as a ratio of the optical density in drug-treated wells to the optical density in wells treated with vehicle only.

Assay [6] concerns human prostate cancer cells PC3. Put plainly: MTT assay, polyamine analogs, PC3. It counts as cell-based. Particulars: PC-3, survival of cultured PC3 cells, figure legends, read-out: ED50 (the source's name). As for the experimental part: as §4, §5
Assay [7] relates to human prostate cancer cells LNCAP. Put plainly: MTT assay, polyamine analogs, LNCAP. It counts as cell-based. To be noted: survival of cultured LNCAP cells, figure legends, read-out: ED50 (the source's name). As for the experimental part: as §4
A conventional MTT assay was used to evaluate percent cell survival. Exponentially growing monolayer cells were plated in 96-well plates at a density of 500 cells per well and allowed to grow for 24 hours. Serial dilutions of the drugs were added to the wells. Six days after drug treatment, 25 μl of MTT solution (5 mg/ml) was added to each well and incubated for 4 hours at 37° C. […] A microplate reader (“EMAX”-brand, Molecular Devices, Sunnyvale, Calif.) set at 570 nm was used to determine the optical density of the cultures. Results are expressed as a ratio of the optical density in drug-treated wells to the optical density in wells treated with vehicle only.

The subject of assay [8] is human colon cancer cells HT29. The experiment in a line: MTT assay, polyamine analogs, HT29. It counts as cell-based. Particulars: for EC50: HT-29, survival of cultured HT29 cells, figure legends, read-out: ED50 (the source's name). As for the experimental part: (§6) As shown in Table 2 and FIGS. 1-32, several novel conformationally restricted polyamine analogs were tested for anti-proliferative properties against cancer cells.
as §4, §5

The test system of assay [9] is human lung cancer cells A549. Put plainly: MTT assay, polyamine analogs, A549. It counts as cell-based. To be noted: Homo sapiens; for EC50: A549, survival of cultured A549 cells, figure legends, read-out: ED50 (the source's name). The protocol:
as §6, §4, §5

The test system of assay [10] is human brain tumor cells U251 MG NCI. Put plainly: MTT assay, polyamine analogs, U251 MG NCI. It counts as cell-based. To be noted: for EC50: U-251, survival of cultured U251 MG NCI cells, figure legends, read-out: ED50 (the source's name). As for the experimental part: as §4, §5
The subject of assay [11] is human breast cancer cells MCF7. The experiment in a line: MTT assay, polyamine analogs, MCF7. It counts as cell-based. As for the experimental part: as §6, §4, §5
Assay [12] concerns human prostate cancer cells DUPRO. Put plainly: MTT assay, polyamine analogs, DUPRO. It counts as cell-based. To be noted: for EC50: survival of cultured DUPRO cells, figure legends, read-out: ED50 (the source's name). The protocol:
as §4, §5

For a further assay, the system named is tumor cell lines. Put plainly: In vitro anti-proliferative testing, summary statements. It counts as cell-based, human. Particulars: FIGS. 57-59: PC3, DUPRO, LNCAP. As for the experimental part: as §5
Where [13] appears, read: Homo sapiens, DU-145, survival of cultured DU145 cells.

Read-outs that look alike come from different tables or passages of the source.

For `O=C1C=C(OCCCCCCCc2ccc(Nc3c4ccccc4nc4ccccc34)cc2)c2ccccc2C1=O` [SL-11064, Quinone-anilinoacridine], the IC50 came to 0.7 µM in assay [1], 0.13 µM in [2] and 2.2 µM in assay [3].
For the compound `CCCCN/C=C1\C=C(O)C(=O)c2ccccc21` [SL-11089], the results for the IC50 in assay [1] and in [4] were 11 µM and over 31.2 µM, respectively.
As to `CCNCCCCNCC1CC1CNCCCCNCC` (centres unmarked) [SL-11093], the EC50 was determined as 0.016 µM in [5] (setting [13]); 1.6 µM in assay [6]; 0.21 µM in [7] (Homo sapiens, LNCaP); 0.4 µM in assay [8]; 0.26 µM in [9]; 0.07 µM in assay [10].
`CCCCN(CC1=CC(=O)C(=O)c2ccccc21)C(=O)CCC(=O)N1CCOCC1` [SL-11096]: the IC50 in assay [1] is 3.6 µM; in assay [4], 3.8 µM.
For `CCNC/C=C\CNC/C=C\CNC/C=C\CNCC` [SL-11108], the IC50 in [5] (Homo sapiens, DU-145, 144 h, read-out: concentration needed for 50% growth inhibition (ID50) DU-145, Table 2, MTT six days after drug treatment) was 0.13 µM; in assay [11] (MCF7, 144 h, read-out: concentration needed for 50% growth inhibition (ID50) MCF7, Table 2, MTT six days after drug treatment), over 31.2 µM; in [8] (HT-29, 144 h, read-out: concentration needed for 50% growth inhibition (ID50) HT-29, Table 2, MTT six days after drug treatment) it was 2 µM; in assay [9] (A549, 144 h, read-out: concentration needed for 50% growth inhibition (ID50) A549, Table 2, MTT six days after drug treatment) it was over 31.2 µM; in [10] (U-251, 144 h, read-out: concentration needed for 50% growth inhibition (ID50) U251MG, Table 2, MTT six days after drug treatment) it was 2 µM; in assay [12] (Homo sapiens, DuPro, 144 h, read-out: concentration needed for 50% growth inhibition (ID50) DUPRO, Table 2, MTT six days after drug treatment), 0.98 µM. Also, the EC50 was 0.13 µM in assay [5] (setting [13]); over 31.2 µM in [11] (MCF7, survival of cultured MCF7 cells, figure legends, read-out: ED50 (the source's name)); 2.2 µM in [6]; 7.7 µM in assay [7] (Homo sapiens, LNCaP); 2 µM in assay [8]; over 31.2 µM in assay [9]. Also, the EC50 stood at 2 µM in [10] and 0.98 µM in assay [12] (Homo sapiens, DuPro).
On to `O=C1C=C(CCCCCCCCc2ccc(Nc3c4ccccc4nc4ccccc34)cc2)c2ccccc2C1=O` [SL-11125, Quinone-acridine], for which the IC50 in assay [1] stood at 5.9 µM; in assay [4], 5.1 µM; in assay [2] it was 0.13 µM; in assay [3], 7.9 µM.
As for `CCNCCCCNCCCCNCCCCNCCCCNCCO` [SL-11141], the “effectiveness against tumor cell lines in vitro” value with tumor cell lines was “display effectiveness against tumor cell lines in vitro”.
As for `CCNCCCCNCCCCNCCCCNCCCCNC/C=C\CNCCCCNCCCCNCCCCNCCCCNCC` [SL-11150], the values for the EC50 in [5] (survival of cultured DU145 cells), in [7] and in assay [12] were 0.11 µM, 0.23 µM and 0.48 µM, respectively.
